Reference: patent US12268697B2, “Oxysterols and methods of use thereof” (Sage Therapeutics, Inc., priority 2015, dated 2025)

Target: T1, GlunN1/GluN2A glutamate receptors (Homo sapiens, UniProt Q05586+Q12879)
T1 construct: expressed in transfected cells
Assay: Whole-cell patch clamp of mammalian cells (Ionworks Barracuda, IWB), NMDA potentiation
Format: cell-based
Conditions: 3 μM test article; HEK293 cells expressing human GRIN1/GRIN2A; co-application with EC20 L-glutamate and 30 μM glycine
Experimental: NMDA potentiation was assessed using either whole cell patch clamp of mammalian cells which expressed NMDA receptors.
Whole-Cell Patch Clamp of Mammalian Cells (Ionworks Barracuda (IWB)
The whole-cell patch-clamp technique was used to investigate the effects of compounds on GlunN1/GluN2A glutamate receptors expressed in mammalian cells.
HEK293 cells were transformed with adenovirus 5 DNA and transfected with cDNA encoding the human GRIN1/GRIN2A genes. Stable transfectants were selected using G418 and Zeocin-resistance genes incorporated into the expression plasmid and selection pressure maintained with G418 and Zeocin in the medium. Cells were cultured in Dulbecco's Modified Eagle Medium/Nutrient Mixture (D-MEM/F-12) supplemented with 10% fetal bovine serum, 100 μg/ml penicillin G sodium, 100 μg/ml streptomycin sulphate, 100 μg/ml Zeocin, 5 μg/ml blasticidin and 500 μg/ml G418.
Test article effects were evaluated in 8-point concentration-response format (4 replicate wells/concentration). […]
• a) Intracellular solution (mM): 50 mM CsCl, 90 mM CsF, 2 mM MgCl2, 5 mM EGTA, 10 mM HEPES. […] Cell suspension will be pipetted into the wells (9 μL per well) of the PPC planar electrode. • b) Whole-cell recording configuration will be established via patch perforation with membrane currents recorded by on-board patch clamp amplifiers. • c) Two recordings (scans) will be performed. […]

T1 sequence (Q12879 23-1464, other chains not shown): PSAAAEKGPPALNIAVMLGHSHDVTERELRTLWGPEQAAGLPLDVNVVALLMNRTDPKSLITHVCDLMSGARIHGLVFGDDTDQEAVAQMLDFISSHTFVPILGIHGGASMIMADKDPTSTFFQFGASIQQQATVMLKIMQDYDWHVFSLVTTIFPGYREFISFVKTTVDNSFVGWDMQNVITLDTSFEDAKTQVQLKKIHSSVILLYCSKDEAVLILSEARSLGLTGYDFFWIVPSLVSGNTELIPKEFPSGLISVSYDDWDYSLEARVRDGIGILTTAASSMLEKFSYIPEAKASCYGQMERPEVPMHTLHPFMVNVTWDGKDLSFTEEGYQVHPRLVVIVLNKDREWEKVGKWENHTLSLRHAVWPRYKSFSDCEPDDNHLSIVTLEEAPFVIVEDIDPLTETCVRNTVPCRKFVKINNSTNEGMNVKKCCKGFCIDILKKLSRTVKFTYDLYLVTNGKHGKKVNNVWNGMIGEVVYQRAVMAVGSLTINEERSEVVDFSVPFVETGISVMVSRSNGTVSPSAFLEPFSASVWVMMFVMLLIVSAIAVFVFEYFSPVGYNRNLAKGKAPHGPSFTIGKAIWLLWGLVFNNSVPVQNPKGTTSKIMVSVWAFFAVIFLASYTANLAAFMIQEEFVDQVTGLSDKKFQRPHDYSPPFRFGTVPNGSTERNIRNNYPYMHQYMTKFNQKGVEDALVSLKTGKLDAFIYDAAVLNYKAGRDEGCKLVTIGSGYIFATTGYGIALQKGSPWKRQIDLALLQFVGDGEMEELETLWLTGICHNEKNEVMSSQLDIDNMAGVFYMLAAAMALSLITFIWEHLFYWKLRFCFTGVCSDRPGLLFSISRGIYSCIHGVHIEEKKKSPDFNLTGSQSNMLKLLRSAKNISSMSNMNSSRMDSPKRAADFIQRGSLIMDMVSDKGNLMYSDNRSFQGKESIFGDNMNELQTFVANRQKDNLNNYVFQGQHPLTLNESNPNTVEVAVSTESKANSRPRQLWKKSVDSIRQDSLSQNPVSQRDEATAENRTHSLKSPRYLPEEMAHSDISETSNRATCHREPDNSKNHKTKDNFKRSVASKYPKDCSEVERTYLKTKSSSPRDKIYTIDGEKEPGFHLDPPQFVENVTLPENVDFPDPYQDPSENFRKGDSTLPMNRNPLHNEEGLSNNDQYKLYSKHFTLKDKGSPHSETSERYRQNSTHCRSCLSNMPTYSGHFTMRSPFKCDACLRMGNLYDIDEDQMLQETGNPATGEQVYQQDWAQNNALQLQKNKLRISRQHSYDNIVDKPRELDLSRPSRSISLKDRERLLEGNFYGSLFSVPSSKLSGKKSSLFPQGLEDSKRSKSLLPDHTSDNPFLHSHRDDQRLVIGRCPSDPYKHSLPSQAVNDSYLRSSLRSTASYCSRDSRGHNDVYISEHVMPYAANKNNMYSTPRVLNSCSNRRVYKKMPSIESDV

In the case of `C[C@H](CCC[C@@H](C)O)[C@H]1CC[C@H]2[C@@H]3CC[C@H]4C[C@@](C)(O)CC[C@]4(C)[C@H]3CC[C@]12C` [Compound 24], the “GluN2A PCA IWB Ephys % potentiation at 3 μM” value is reported as “B (“B” indicates potentiation of >100%)”.
